Measurements: patent US20070178166A1, “PROCESSES FOR MAKING PARTICLE-BASED PHARMACEUTICAL FORMULATIONS FOR PULMONARY OR NASAL ADMINISTRATION” (priority 2005, published 2007)

Experiment: Dry powder particle sizing using a Malvern Mastersizer
Format: physicochemical
Excerpt: The following materials were used in the examples: mannitol (Spectrum Chemicals, New Brunswick, N.J., unless otherwise indicated), TWEENTM 80 (Spectrum Chemicals, New Brunswick, N.J.), celecoxib (Onbio, Ontario, Canada), Plasdone-C 15 (International Specialty Products, Wayne, N.Y.), budesonide (Byron Chemical Company, Long Island, N.Y.), dipalmitoyl phosphatidylcholine (DPPC) (Chemi S.p.a., Milan, Italy, unless otherwise indicated), PLGA (Boehringer Ingelheim Fine Chemicals, Ingelheim, Germany), ammonium bicarbonate (Spectrum Chemicals, Gardenia, Calif.), methylene chloride (EM Science, Gibbstown, N.J.), Fluticasone propionate ([…]., Mumbai, India), and lactose (Pharmatose […], DMV International, The Netherlands). The TWEENTM 80 is hereinafter referred to as “Tween80.” The volume average diameter of lactose (Pharmatose […]) was determined to be approximately 68 μm by dry powder particle sizing using a Malvern Mastersizer (Malvern Instruments Ltd., United Kingdom).

volume average diameter: approximately 68 μm
SMILES: OC[C@H]1O[C@@H](O[C@H]2[C@H](O)[C@@H](O)C(O)O[C@@H]2CO)[C@H](O)[C@@H](O)[C@H]1O (stereo partly shown) [lactose (Pharmatose 325M), lactose]
